Laboratory results from article PMC11357990, “A first-in-class selective inhibitor of EGFR and PI3K offers a single-molecule approach to targeting adaptive resistance” (Nature Cancer, 2024).
pIC50: −log10 of the molar value.

Assays:
PI3Kδ = biological target: T1, PI3Kδ (Homo sapiens, UniProt O00329); assay: biochemical kinase assay at ATP Km apparent
T1 construct: gene PIK3CD

PPARγ = biological target: T2, PPARγ (Homo sapiens, UniProt P37231); assay: X-ray cocrystal structure ([…] Å); TR-FRET competitive binding
T2 construct: gene PPARG; L232-Y505 of UniProt entry P37231-2

HER2 = biological target: T3, HER2 (Homo sapiens, UniProt P04626); assay: biochemical; set-up: Purified kinase inhibition, Z'-LYTE (HER, mTOR, DNA-PK) or Adapta (PI3K), ATP at Km apparent
T3 construct: gene ERBB2; Km ATP
Method: (§1) IC50 values were determined at a concentration of ATP corresponding to the Km apparent for that kinase.

PI3Kβ = biological target: T4, PI3Kβ (Homo sapiens, UniProt P42338); assay: biochemical; set-up: Purified kinase inhibition, Z'-LYTE (HER, mTOR, DNA-PK) or Adapta (PI3K), ATP at Km apparent
T4 construct: gene PIK3CB; Km ATP
Method: as §1

EGFR = EGFR (Homo sapiens, UniProt P00533); assay: X-ray cocrystal structure ([…] Å); purified kinase assay IC50; format: biochemical; set-up: G696-G1022
PI3Kα = PI3Kα (Homo sapiens, UniProt P42336); assay: biochemical kinase assay at ATP Km apparent; set-up: gene PIK3CA
[1] = biological target: T5, Potassium Channel hERG (human)- [3H] Dofetilide (Homo sapiens, UniProt Q12809); assay: in vitro
T5 construct: gene KCNH2

[2] = biological target: T6, 5-HT transporter (h) (antagonist radioligand) (Homo sapiens, UniProt P31645); assay: biochemical; settings: read-out: Binding / ================================================= / % Inhibition of Control Specific Binding
T6 construct: gene SLC6A4

[3] = biological target: T7, 5-HT1A (h) (agonist radioligand) (Homo sapiens, UniProt P08908); assay: biochemical; settings: read-out: Binding / ================================================= / % Inhibition of Control Specific Binding
T7 construct: gene HTR1A

[4] = biological target: T8, 5-HT2B (h) (agonist radioligand) (Homo sapiens, UniProt P41595); assay: biochemical; settings: read-out: Binding / ================================================= / % Inhibition of Control Specific Binding
T8 construct: gene HTR2B

[5] = biological target: T9, 5-HT2C (h) (antagonist radioligand) (Homo sapiens, UniProt P28335); assay: biochemical; settings: read-out: Binding / ================================================= / % Inhibition of Control Specific Binding
T9 construct: gene HTR2C

[6] = biological target: AR(h) (agonist radioligand) (Homo sapiens, UniProt P10275); assay: biochemical; settings: read-out: Binding / ================================================= / % Inhibition of Control Specific Binding
[7] = biological target: T10, AT1 (h) (antagonist radioligand) (Homo sapiens, UniProt P30556); assay: biochemical; settings: read-out: Binding / ================================================= / % Inhibition of Control Specific Binding
T10 construct: gene AGTR1

[8] = biological target: T11, D2L (h) (antagonist radioligand) (Homo sapiens, UniProt P14416); assay: biochemical; settings: read-out: Binding / ================================================= / % Inhibition of Control Specific Binding
T11 construct: gene DRD2

[9] = biological target: T12, GABAA1 (h) (alpha 1,beta 2,gamma 2) (agonist radioligand) (Homo sapiens, UniProt P14867+P47870); assay: biochemical; settings: read-out: Binding / ================================================= / % Inhibition of Control Specific Binding
T12 construct: gene GABRA1

[10] = biological target: T13, GABAB(1b) (h) (antagonist radioligand) (Homo sapiens, UniProt Q9UBS5); assay: biochemical; settings: read-out: Binding / ================================================= / % Inhibition of Control Specific Binding
T13 construct: gene GABBR1

[11] = biological target: T14, M4 (h) (antagonist radioligand) (Homo sapiens, UniProt P08173); assay: biochemical; settings: read-out: Binding / ================================================= / % Inhibition of Control Specific Binding
T14 construct: gene CHRM4

[12] = biological target: T15, MAO-A (antagonist radioligand) (Rattus norvegicus, UniProt P21396); assay: biochemical; settings: read-out: Binding / ================================================= / % Inhibition of Control Specific Binding
T15 construct: gene Maoa

[13] = biological target: T16, N muscle-type (h) (antagonist radioligand) (Homo sapiens, UniProt P02708+P07510+Q07001); assay: biochemical; settings: read-out: Binding / ================================================= / % Inhibition of Control Specific Binding
T16 construct: gene CHRNA1

[14] = biological target: T17, NK1 (h) (agonist radioligand) (Homo sapiens, UniProt P25103); assay: biochemical; settings: read-out: Binding / ================================================= / % Inhibition of Control Specific Binding
T17 construct: gene TACR1

[15] = biological target: T18, RARalpha (h) (agonist radioligand) (Homo sapiens, UniProt P10276); assay: biochemical; settings: read-out: Binding / ================================================= / % Inhibition of Control Specific Binding
T18 construct: gene RARA

[16] = biological target: T19, V1a (h) (agonist radioligand) (Homo sapiens, UniProt P37288); assay: biochemical; settings: read-out: Binding / ================================================= / % Inhibition of Control Specific Binding
T19 construct: gene AVPR1A

[17] = biological target: T20, Y1 (h) (agonist radioligand) (Homo sapiens, UniProt P25929); assay: biochemical; settings: read-out: Binding / ================================================= / % Inhibition of Control Specific Binding
T20 construct: gene NPY1R

[18] = biological target: T21, alpha 1A (h) (antagonist radioligand) (Homo sapiens, UniProt P35348); assay: biochemical; settings: read-out: Binding / ================================================= / % Inhibition of Control Specific Binding
T21 construct: gene ADRA1A

[19] = biological target: T22, alpha 2B (h) (antagonist radioligand) (Homo sapiens, UniProt P18089); assay: biochemical; settings: read-out: Binding / ================================================= / % Inhibition of Control Specific Binding
T22 construct: gene ADRA2B

[20] = biological target: T23, beta 1 (h) (agonist radioligand) (Homo sapiens, UniProt P08588); assay: biochemical; settings: read-out: Binding / ================================================= / % Inhibition of Control Specific Binding
T23 construct: gene ADRB1

[21] = biological target: T24, mGluR5 (h) (agonist radioligand) (Homo sapiens, UniProt P41594); assay: biochemical; settings: read-out: Binding / ================================================= / % Inhibition of Control Specific Binding
T24 construct: gene GRM5

[22] = biological target: T25, mu (MOP) (h) (agonist radioligand) (Homo sapiens, UniProt P35372); assay: biochemical; settings: read-out: Binding / ================================================= / % Inhibition of Control Specific Binding
T25 construct: gene OPRM1

[23] = biological target: T26, norepinephrine transporter (h) (antagonist radioligand) (Homo sapiens, UniProt P23975); assay: biochemical; settings: read-out: Binding / ================================================= / % Inhibition of Control Specific Binding
T26 construct: gene SLC6A2
T26 sequence (P23975 whole entry): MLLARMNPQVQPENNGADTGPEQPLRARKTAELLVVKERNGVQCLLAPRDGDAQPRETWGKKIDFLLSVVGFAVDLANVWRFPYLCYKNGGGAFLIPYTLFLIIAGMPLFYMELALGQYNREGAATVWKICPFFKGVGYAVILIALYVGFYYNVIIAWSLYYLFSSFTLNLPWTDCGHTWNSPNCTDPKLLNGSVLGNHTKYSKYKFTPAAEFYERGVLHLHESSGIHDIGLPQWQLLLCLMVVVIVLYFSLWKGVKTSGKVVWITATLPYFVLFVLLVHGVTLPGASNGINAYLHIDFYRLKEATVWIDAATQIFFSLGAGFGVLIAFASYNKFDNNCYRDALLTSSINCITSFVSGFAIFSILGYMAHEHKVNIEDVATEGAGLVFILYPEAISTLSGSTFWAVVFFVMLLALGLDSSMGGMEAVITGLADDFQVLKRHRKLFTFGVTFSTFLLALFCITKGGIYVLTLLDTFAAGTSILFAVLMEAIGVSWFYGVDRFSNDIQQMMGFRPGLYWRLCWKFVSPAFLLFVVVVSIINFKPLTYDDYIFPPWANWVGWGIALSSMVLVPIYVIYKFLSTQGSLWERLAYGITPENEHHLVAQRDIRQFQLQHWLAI

T17 sequence (P25103 whole entry): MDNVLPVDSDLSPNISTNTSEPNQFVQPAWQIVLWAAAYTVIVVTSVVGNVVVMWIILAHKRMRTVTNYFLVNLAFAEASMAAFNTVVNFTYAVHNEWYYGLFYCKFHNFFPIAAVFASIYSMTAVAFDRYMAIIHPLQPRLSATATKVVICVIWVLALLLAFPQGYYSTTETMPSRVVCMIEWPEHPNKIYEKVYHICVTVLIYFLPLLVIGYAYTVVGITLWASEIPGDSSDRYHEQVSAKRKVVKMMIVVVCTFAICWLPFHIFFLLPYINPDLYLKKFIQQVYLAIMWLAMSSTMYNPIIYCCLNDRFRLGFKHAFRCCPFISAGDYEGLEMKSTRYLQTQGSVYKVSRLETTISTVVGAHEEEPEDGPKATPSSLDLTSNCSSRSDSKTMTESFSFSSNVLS
T21 sequence (P35348 whole entry): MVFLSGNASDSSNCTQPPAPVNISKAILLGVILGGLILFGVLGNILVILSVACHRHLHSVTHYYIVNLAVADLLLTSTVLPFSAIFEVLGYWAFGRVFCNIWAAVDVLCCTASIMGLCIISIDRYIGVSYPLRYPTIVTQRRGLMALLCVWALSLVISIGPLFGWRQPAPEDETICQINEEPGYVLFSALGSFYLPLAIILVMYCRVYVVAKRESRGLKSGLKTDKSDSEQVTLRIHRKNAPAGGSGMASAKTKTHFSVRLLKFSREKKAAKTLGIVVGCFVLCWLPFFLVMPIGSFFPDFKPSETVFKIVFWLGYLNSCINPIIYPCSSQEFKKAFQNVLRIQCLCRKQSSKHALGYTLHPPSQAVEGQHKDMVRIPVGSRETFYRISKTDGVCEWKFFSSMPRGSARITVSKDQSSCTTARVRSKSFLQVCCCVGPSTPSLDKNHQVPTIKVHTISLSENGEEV
Sequence of EGFR (P00533 696-1022): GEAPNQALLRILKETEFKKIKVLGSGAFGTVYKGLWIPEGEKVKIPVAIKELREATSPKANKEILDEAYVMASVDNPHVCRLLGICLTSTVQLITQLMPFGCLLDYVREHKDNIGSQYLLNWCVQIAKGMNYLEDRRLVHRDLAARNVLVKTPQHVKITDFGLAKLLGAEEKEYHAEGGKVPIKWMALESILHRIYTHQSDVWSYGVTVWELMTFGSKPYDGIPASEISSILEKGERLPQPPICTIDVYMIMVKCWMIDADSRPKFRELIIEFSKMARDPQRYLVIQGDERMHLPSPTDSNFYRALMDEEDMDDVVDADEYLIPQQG
T2 sequence (P37231 232-505): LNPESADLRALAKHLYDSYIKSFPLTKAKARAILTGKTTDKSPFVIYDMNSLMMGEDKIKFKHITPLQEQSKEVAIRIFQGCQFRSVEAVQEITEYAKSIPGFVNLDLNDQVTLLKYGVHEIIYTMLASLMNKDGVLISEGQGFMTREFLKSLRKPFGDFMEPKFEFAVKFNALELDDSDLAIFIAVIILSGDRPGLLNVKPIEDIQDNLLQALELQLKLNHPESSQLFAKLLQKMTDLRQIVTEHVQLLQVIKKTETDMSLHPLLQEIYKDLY
T19 sequence (P37288 whole entry): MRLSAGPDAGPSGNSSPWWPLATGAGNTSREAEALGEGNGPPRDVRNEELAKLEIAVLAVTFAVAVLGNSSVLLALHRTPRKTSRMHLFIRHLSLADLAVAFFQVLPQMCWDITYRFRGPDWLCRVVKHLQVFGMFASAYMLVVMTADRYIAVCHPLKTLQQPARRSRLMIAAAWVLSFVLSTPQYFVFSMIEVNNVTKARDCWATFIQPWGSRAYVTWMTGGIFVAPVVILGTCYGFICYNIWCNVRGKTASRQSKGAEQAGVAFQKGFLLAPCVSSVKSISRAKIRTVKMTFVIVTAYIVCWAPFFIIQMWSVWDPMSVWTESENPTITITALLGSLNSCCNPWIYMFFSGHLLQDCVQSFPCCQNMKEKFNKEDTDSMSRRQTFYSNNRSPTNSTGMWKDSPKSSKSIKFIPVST
T10 sequence (P30556 whole entry): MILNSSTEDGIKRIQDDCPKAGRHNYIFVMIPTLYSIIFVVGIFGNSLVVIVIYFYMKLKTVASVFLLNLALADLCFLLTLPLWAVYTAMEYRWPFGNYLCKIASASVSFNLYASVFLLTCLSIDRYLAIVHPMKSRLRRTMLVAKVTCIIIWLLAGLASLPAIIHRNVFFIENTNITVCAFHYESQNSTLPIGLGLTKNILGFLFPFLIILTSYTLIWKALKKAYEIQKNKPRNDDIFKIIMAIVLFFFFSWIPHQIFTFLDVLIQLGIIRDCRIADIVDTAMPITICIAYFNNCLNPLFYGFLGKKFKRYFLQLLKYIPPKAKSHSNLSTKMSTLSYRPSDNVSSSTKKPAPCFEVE
T25 sequence (P35372 whole entry): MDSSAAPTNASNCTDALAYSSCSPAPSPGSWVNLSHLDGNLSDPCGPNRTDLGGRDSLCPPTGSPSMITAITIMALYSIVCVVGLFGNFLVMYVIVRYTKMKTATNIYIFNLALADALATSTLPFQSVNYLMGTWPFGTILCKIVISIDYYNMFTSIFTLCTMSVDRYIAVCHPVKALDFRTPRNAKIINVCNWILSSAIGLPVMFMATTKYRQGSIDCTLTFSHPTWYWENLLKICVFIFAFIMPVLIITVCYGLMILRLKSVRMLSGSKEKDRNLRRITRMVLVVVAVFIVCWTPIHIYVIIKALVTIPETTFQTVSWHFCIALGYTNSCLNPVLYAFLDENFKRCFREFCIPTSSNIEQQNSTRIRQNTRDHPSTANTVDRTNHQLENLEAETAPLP
T18 sequence (P10276 whole entry): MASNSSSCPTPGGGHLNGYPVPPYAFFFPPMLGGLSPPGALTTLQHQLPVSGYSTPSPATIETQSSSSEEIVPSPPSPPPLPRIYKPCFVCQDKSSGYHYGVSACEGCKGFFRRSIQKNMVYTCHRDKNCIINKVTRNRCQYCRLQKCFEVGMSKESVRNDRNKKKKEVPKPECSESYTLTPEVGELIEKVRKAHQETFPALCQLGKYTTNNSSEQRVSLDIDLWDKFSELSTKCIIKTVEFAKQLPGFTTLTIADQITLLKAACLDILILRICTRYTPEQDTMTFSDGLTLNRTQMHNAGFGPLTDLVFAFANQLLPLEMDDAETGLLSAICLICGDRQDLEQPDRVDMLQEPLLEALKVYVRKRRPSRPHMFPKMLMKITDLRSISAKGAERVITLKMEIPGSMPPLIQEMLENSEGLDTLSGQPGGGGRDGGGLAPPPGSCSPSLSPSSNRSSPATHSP
T22 sequence (P18089 whole entry): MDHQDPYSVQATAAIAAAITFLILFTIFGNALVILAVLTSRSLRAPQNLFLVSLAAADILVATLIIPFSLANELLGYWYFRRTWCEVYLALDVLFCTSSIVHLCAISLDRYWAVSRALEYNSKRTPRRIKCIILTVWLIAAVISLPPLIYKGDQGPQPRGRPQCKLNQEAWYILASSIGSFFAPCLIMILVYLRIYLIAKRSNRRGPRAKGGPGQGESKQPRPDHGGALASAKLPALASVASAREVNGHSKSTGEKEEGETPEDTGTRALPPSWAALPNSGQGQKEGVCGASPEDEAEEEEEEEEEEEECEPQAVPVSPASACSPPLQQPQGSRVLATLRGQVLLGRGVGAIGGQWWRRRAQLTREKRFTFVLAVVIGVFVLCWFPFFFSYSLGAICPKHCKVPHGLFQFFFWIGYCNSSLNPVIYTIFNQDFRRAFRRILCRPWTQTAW
T7 sequence (P08908 whole entry): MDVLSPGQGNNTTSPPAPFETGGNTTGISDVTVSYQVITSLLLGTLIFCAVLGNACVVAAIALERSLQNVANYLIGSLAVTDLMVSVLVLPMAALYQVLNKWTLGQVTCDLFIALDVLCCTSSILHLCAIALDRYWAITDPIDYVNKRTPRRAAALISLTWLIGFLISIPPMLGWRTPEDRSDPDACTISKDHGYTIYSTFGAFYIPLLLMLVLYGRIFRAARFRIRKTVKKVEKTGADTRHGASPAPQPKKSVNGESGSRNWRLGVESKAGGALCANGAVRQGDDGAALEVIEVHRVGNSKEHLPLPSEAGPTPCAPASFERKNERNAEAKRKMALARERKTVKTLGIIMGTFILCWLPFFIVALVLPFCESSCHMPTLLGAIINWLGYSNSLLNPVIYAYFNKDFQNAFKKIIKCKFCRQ

For `C[C@@H](Nc1ncnc2ccc(-c3cnc(Cl)c(NS(C)(=O)=O)c3)cc12)c1ccccc1` [MTX-531, (R)-N-(2-chloro-5-(4-((1-phenylethyl)amino)quinazolin-6-yl)pyridin-3-yl)methane-sulfonamide], the pIC50 (PI3Kδ) was 8.96, the pIC50 (PPARγ) was 5.60 and the pIC50 (HER2) was 5.60. For the same compound, the pIC50 (PI3Kβ) was 6.63, the pIC50 (EGFR) was 7.83 and the pIC50 (PI3Kα) was 8.19. For the same compound, the inhibition at 10 µM [1] was 51%, the inhibition at 10 µM [2] was -1% and the inhibition at 10 µM [3] was 6%. For the same compound, the inhibition at 10 µM [4] was 2%, the inhibition at 10 µM [5] was 4% and the inhibition at 10 µM [6] was -1%. It also gave an inhibition at 10 µM [7] of 4%, an inhibition at 10 µM [8] of -17% and an inhibition at 10 µM [9] of -5%. The inhibition at 10 µM [10] was -3%, the inhibition at 10 µM [11] was 5% and the inhibition at 10 µM [12] was 8%. It also gave an inhibition at 10 µM [13] of 6%, an inhibition at 10 µM [14] of -5% and an inhibition at 10 µM [15] of 4%. For the same compound, the inhibition at 10 µM [16] was 2%, the inhibition at 10 µM [17] was 0% and the inhibition at 10 µM [18] was 9%. It also gave an inhibition at 10 µM [19] of 2%, an inhibition at 10 µM [20] of 1% and an inhibition at 10 µM [21] of 5%. The inhibition at 10 µM [22] was 25% and the inhibition at 10 µM [23] was 19%.
